Results as given in PMC7833600 (The Journal of Biological Chemistry, 2021).
Non-standard residues stand in square brackets, D forms with d. Residues, ends and D or L forms follow the SMILES beside them. No end group written: not given here. *: point of attachment. Dnp = O=[N+]([O-])c1ccc(*)c([N+](=O)[O-])c1; Sta = CC(C)C[C@H](N)[C@@H](O)CC(=O)O; Mca = COc1ccc2c(CC(=O)*)cc(=O)oc2c1; Isovaleryl = CC(C)CC(=O)*

How the values were obtained:
ACE2 = conditions: cited from earlier work
human ACE2 [1] = target: T1, human ACE2 (Homo sapiens, UniProt Q9BYF1); format: biochemical
T1 sequence (Q9BYF1 18-740 limits assumed): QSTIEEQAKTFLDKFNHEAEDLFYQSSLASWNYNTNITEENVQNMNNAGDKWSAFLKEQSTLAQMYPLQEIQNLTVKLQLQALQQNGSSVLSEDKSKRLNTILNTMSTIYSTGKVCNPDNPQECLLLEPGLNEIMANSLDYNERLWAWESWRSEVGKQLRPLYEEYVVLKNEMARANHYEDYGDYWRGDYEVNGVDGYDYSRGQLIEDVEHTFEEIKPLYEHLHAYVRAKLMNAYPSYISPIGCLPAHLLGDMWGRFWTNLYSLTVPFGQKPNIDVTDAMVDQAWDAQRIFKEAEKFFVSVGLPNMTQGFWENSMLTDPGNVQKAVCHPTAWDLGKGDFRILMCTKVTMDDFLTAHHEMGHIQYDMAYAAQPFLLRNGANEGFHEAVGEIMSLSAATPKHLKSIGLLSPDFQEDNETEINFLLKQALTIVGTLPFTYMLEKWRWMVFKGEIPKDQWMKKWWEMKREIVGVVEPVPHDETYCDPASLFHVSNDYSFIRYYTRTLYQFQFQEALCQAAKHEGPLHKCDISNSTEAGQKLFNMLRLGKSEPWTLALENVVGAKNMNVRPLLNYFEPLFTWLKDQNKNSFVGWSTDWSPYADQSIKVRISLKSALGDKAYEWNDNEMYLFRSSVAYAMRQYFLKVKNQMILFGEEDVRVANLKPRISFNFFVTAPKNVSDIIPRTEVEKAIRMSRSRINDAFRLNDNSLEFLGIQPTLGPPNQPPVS

human ACE2 [2] = target: T1, human ACE2; format: biochemical; remark: listed apart in the source
human ACE2 [3] = target: T1, human ACE2; assay: biochemical; conditions: IC50 for Competitive substrates, 1 h, 26 °C

Which “k cat/Km of ACE2 cleavage” value (ACE2) does the source give for QRPRLSHKGPMP↓F [Apelin-13] here?
Its value is over 1e+06 M⁻¹ s⁻¹.

For Mca-RPPGFSAFK(Dnp)-OH, which “amount of substrate cleaved by ACE2” value (human ACE2 [1]) is on record?
The value was about 0.05 µM.

Which “effect on ACE2 activity” value (human ACE2 [2]) does the source give for `NCCc1ccc(S(=O)(=O)F)cc1` [AEBSF] here?
The value was “no effects”.

With RPPGFSPFR [BK, bradykinin] as the molecule, how does the IC50 (human ACE2 [3]) read?
The IC50 was 680 ± 87 µM.

For `CC(C)CC(=O)N[C@H](C(=O)N[C@H](C(=O)N[C@@H](CC(C)C)[C@@H](O)CC(=O)N[C@@H](C)C(=O)N[C@@H](CC(C)C)[C@@H](O)CC(=O)O)C(C)C)C(C)C` [pepstatin A] (Isovaleryl-VV[Sta]A[Sta]-OH), which “effect on ACE2 activity” value (human ACE2 [2]) is on record?
The value was “no effects”.

For YGGFLRRIRPKL↓K [dynorphin A 1-13], which “k cat/Km of ACE2 cleavage” value (ACE2) is on record?
The value was over 1e+06 M⁻¹ s⁻¹.

Which “amount of substrate cleaved by ACE2” value (human ACE2 [1]) does the source give for Mca-YVADAPK(Dnp)-OH here?
Its value is about 0.5 µM.

What does the source list for `CC(C)C[C@H](N[C@@H](Cc1cncn1Cc1cc(Cl)cc(Cl)c1)C(=O)O)C(=O)O` [MLN-4760]?
effect on ACE2 activity (human ACE2 [2]): completely blocked; effect on the spike / RBD mediated enhancement of ACE2 cleavage (human ACE2 [2]): abolished

Which “effect on ACE2 activity” value (human ACE2 [2]) does the source give for `CC(=O)N[C@@H](CC(C)C)C(=O)N[C@@H](CC(C)C)C(=O)N[C@H](C=O)CCCNC(=N)N` [leupeptin] here?
Its value is “no effects”.

For `N=C(N)NCCC[C@H](N)C(=O)N1CCC[C@H]1C(=O)N1CCC[C@H]1C(=O)NCC(=O)N[C@@H](Cc1ccccc1)C(=O)N[C@@H](CO)C(=O)N1CCC[C@H]1C(=O)N[C@@H](Cc1ccccc1)C(=O)O` [desBK, des-Arg^9-bradykinin], which IC50 (human ACE2 [3]) is on record?
Its IC50 is 1430 ± 655 µM.
